BindingDB's records for doi:10.1016/j.chembiol.2009.01.014 (Duke University Medical Center, 2009)

How the values were obtained:
[1] = target: Protein farnesyltransferase subunit beta/geranylgeranyltransferase type-1 subunit alpha (Homo sapiens, UniProt P49354+P49356); test: In Vitro PFT Activity Assay; conditions: pH 7.7; 30 °C
Procedure: In vitro inhibition assay of human PFT was done by measuring the incorporation of [3H] FPP (Amersham Biosciences, Piscataway, NJ) into wild type H-Ras (PFT). The 60,000g post-microsomal supernatant from Daudi cells was incubated in the presence of increasing concentration of compound, H-Ras substrate, and [3H] FPP. Samples were TCA-precipitated and then filtered onto glass fiber filters; unbound [3H] FPP was washed through the filters. Samples were counted on a scintillation counter and activity compared to vehicle controls to obtain IC50 values.

[2] = target: Protein farnesyltransferase/geranylgeranyltransferase type-1 subunit alpha / Protein farnesyltransferase subunit beta (Plasmodium falciparum, UniProt Q5EI73+Q5EI74); test: PfPFT IC50 Determination; conditions: pH 7.5; 37 °C
Procedure: Assays for PfPFT activity were performed with a PFT-specific scintillation assay (SPA) kit (Amersham Biosciences, Piscataway, NJ). An amount of 1 uM biotinylated lamin B peptide was used. The concentration of [3H]farnesyl pyrophosphate (FPP) was increased beyond manufacturer recommendations to 1 uM. IC50 values were calculated using linear regression analysis of the plots of [3H]FPP prenylation versus concentration of compounds.

Chain of Protein farnesyltransferase/geranylgeranyltransferase type-1 subunit alpha / Protein farnesyltransferase subunit beta (Q5EI73 1-521): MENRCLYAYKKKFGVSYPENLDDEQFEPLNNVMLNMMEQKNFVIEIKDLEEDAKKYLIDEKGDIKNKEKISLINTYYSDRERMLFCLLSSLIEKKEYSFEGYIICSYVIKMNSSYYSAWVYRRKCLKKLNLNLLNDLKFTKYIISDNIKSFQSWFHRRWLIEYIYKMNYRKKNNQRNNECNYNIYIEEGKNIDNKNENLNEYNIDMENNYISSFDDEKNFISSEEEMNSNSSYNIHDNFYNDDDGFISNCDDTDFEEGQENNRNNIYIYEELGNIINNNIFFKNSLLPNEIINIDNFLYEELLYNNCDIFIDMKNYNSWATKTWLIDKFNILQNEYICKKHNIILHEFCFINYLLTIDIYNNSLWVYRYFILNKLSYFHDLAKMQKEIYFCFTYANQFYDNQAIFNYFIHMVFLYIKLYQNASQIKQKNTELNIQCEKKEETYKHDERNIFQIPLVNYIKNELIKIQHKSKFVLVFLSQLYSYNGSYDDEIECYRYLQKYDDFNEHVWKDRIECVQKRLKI
Chain of Protein farnesyltransferase/geranylgeranyltransferase type-1 subunit alpha / Protein farnesyltransferase subunit beta (Q5EI74 1-923): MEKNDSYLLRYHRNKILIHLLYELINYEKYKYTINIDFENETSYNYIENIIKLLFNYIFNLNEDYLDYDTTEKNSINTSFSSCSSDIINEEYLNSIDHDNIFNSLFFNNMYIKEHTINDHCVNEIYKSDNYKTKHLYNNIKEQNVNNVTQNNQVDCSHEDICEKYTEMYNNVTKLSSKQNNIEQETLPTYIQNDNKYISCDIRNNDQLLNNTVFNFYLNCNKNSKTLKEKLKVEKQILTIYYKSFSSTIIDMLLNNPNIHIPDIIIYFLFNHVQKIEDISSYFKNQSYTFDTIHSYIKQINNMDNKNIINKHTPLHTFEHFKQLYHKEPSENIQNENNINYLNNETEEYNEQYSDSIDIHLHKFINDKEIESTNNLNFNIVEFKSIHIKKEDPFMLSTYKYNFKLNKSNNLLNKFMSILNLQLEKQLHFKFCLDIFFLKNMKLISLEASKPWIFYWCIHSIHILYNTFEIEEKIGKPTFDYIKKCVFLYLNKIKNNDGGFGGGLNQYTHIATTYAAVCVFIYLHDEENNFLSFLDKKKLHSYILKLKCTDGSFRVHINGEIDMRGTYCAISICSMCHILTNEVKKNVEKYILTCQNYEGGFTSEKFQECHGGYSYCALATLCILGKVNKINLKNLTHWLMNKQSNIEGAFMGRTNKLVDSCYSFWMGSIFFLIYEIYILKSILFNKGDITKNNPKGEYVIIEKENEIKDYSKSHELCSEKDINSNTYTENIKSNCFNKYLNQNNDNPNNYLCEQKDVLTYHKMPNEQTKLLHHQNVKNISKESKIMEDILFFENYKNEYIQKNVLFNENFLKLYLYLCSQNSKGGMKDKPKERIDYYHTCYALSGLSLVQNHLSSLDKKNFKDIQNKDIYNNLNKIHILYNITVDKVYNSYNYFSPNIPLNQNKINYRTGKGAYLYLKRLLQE

SMILES	IC50 [1]	IC50 [2]
Cn1cnc(S(=O)(=O)N(CCN(Cc2cncn2C)c2ccc(C#N)cc2)Cc2ccccc2)c1 [1-Methyl-1H-imidazole-4-sulfonic Acid Benzyl-{2-[(4-cyanophenyl)-(3-methyl-3H-imidazol-4-ylmethyl)amino]ethyl}amide]	0.056 µM	–
Cn1cnc(S(=O)(=O)N(CCN(Cc2cncn2C)c2ccc(C#N)cc2)CC2CCN(C(=O)OC(C)(C)C)CC2)c1 [ethylenediamine scaffold, 4]	3.7 µM	0.0012 µM
Cc1ccccc1S(=O)(=O)N(CCN(Cc1cncn1C)c1ccc(C#N)cc1)Cc1ccccc1 [ethylenediamine scaffold, 7]	0.16 µM	0.005 µM
Cc1ccccc1S(=O)(=O)N(CCN(Cc1cncn1C)c1ccc(C#N)cc1)CC1CCN(C(=O)OC(C)(C)C)CC1 [ethylenediamine scaffold, 5]	–	0.003 µM
Cn1cncc1CN(CCN(CC1CCN(C(=O)OC(C)(C)C)CC1)S(=O)(=O)c1ccccc1-c1cccc(CCC(=O)O)c1)c1ccc(C#N)cc1 [ethylenediamine scaffold, 10]	0.8 µM	0.07 µM
